Test results published in patent US20260242352A1, “INHIBITION OF SHIP1 AS A THERAPEUTIC STRATEGY FOR THE TREATMENT OF ALZHEIMER'S DISEASE” (The Trustees of Indiana University, priority 2022, published 2026).

Target: T1, HiBit-labeled full length SHIP1 protein (Homo sapiens, UniProt Q92835)
T1 construct: thermal stability of a HiBit-labeled full length SHIP1 protein in intact cells; expressed in transfected cells; host or cells: HMC3 (stably transfected)
T1 sequence (Q92835 1-1189): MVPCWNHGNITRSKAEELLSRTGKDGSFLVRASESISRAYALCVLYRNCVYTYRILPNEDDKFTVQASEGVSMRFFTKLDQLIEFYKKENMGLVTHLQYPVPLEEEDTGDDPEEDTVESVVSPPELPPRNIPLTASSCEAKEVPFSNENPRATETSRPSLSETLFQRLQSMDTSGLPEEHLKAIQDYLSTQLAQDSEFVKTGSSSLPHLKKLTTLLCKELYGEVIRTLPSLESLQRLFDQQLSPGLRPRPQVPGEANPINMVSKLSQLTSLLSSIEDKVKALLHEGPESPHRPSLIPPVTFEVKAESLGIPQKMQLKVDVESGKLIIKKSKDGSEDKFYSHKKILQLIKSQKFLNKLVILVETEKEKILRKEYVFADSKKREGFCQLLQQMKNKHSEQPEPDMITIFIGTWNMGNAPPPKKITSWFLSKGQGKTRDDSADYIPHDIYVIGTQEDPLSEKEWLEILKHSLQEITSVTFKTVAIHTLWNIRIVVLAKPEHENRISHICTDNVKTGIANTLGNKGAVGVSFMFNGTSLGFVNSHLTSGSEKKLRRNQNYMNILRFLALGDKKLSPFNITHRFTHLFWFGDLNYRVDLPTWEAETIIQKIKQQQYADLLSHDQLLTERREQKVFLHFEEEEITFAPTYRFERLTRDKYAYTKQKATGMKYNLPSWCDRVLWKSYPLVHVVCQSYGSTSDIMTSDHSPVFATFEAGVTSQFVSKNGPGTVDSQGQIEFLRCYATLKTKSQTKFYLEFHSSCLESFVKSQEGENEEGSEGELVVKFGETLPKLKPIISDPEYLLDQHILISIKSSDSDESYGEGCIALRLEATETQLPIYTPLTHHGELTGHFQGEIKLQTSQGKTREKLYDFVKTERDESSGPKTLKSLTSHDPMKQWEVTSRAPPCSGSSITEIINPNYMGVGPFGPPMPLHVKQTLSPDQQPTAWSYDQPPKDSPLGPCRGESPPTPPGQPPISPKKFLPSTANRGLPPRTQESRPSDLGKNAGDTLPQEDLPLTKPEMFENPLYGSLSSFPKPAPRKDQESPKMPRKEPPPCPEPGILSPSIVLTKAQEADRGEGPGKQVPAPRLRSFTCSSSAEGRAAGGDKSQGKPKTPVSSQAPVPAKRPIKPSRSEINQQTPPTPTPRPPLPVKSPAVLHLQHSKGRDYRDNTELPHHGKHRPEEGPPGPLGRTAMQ
Assay: Cellular thermal shift assay (SplitLuc CETSA), compound dose response
Assay type: cell-based
Conditions: HMC3/HiBit-INPP5D cells, 60 min; for CETSA Min Inhibition (%): heated at 44.2° C.; for AC50: heated at 44.2° C. for 3 min, 8-point curve from 80 uM or 100 uM
Protocol: Cellular thermal shift assay (CETSA). […] This assay was run in the following two formats with HMC3/HiBit-INPP5D stably transfected cells.
2. Compound dose response: run at target Tm (44.2° C. for SHIP1) with compound dosing from 80 uM or 100 uM with 1:3 serial dilutions to generate an 8 point curve. Cells were treated for 60 min before being heated at target Tm for 3 min before luminescence detection. An AC50 was calculated using a four-parameter logistic curve regression model with change at highest concentration noted when difference from control >3SD, otherwise AC50 marked as “nc” for not calculated.
See Martinez et al. (2018) Sci Rep 8: p. 9472; Oh-Hashi et al. (2017) Biochem Biophys Rep 12: pp. 40-45. This assay was run in the following two formats with HMC3/HiBit-INPP5D stably transfected cells.
Compound dose response: run at target Tm (44.2° C. for SHIP1) with compound dosing from 80 uM or 100 uM with 1:3 serial dilutions to generate an 8-point curve. Cells were treated for 60 min before being heated at target Tm for 3 min before luminescence detection. The concentration that induced a half-maximum response (AC50) was calculated using a four-parameter logistic curve regression model with change at highest concentration noted when difference from control >3SD.

Row | CETSA Min Inhibition (%) | AC50 [µM] | SMILES
1 | 74.7 | – | CC(C)(C)OC(=O)N1CCC(n2cc(-c3cncc(OCc4ccccc4Cl)c3)cn2)CC1 [Compound 1, tert-butyl 4-(4-{5-[(2-chlorophenyl)methoxy]pyridin-3-yl}-1H-pyrazol-1-yl)piperidine-1-carboxylate]
2 | 70.6 | – | CC(C)(C)OC(=O)N1CCC(n2cc(-c3cncc(OCc4ccccc4F)c3)cn2)CC1 [Compound 2, tert-butyl 4-(4-(5-((2-fluorobenzyl)oxy)pyridin-3-yl)-1H-pyrazol-1-yl)piperidine-1-carboxylate]
3 | 60.8 | 77 | Cc1ccccc1COc1cncc(-c2cnn(C3CCN(C(=O)OC(C)(C)C)CC3)c2)c1 [Compound 3, tert-butyl 4-(4-(5-((2-methylbenzyl)oxy)pyridin-3-yl)-1H-pyrazol-1-yl)piperidine-1-carboxylate]
4 | 69.2 | > 80 | CC(C)(C)OC(=O)N1CCC(n2cc(-c3cncc(OCc4ccccc4)c3)cn2)CC1 [Compound 4, tert-butyl 4-(4-(5-(benzyloxy)pyridin-3-yl)-1H-pyrazol-1-yl)piperidine-1-carboxylate]
5 | 66.3 | – | CC(C)(C)OC(=O)N1CCC(n2cc(-c3cncc(OCc4ccc(Br)cc4)c3)cn2)CC1 [Compound 7, tert-butyl 4-(4-(5-((4-bromobenzyl)oxy)pyridin-3-yl)-1H-pyrazol-1-yl)piperidine-1-carboxylate]
6 | 16.0 | 55 | Cl.Clc1ccccc1COc1cncc(-c2cnn(C3CCNCC3)c2)c1 [Compound 9, 3-((2-chlorobenzyl)oxy)-5-(1-(piperidin-4-yl)-1H-pyrazol-4-yl)pyridine hydrochloride]
7 | 66.7 | – | CC(C)(C)CCN1CCC(n2cc(-c3cncc(OCc4ccccc4Cl)c3)cn2)CC1 [Compound 15, 3-((2-chlorobenzyl)oxy)-5-(1-(1-(3,3-dimethylbutyl)piperidin-4-yl)-1H-pyrazol-4-yl)pyridine]
8 | 64.5 | 79.6 | CC(C)(C)CC(=O)N1CCC(n2cc(-c3cncc(OCc4ccccc4Cl)c3)cn2)CC1 [Compound 16, 1-(4-(4-(5-((2-chlorobenzyl)oxy)pyridin-3-yl)-1H-pyrazol-1-yl)piperidin-1-yl)-3,3-dimethylbutan-1-one]
9 | 24.9 | 54.7 | C[C@H](Oc1cncc(-c2cnn(C3CCNCC3)c2)c1)c1ccccc1Cl [Compound 21, (S)-3-(1-(2-chlorophenyl)ethoxy)-5-(1-(piperidin-4-yl)-1H-pyrazol-4-yl)pyridine]
10 | 24.6 | 43.4 | C[C@@H](Oc1cncc(-c2cnn(C3CCNCC3)c2)c1)c1ccccc1Cl [Compound 22, (R)-3-(1-(2-chlorophenyl)ethoxy)-5-(1-(piperidin-4-yl)-1H-pyrazol-4-yl)pyridine]
11 | 8.15 | 50.6 | C[C@@H](Oc1cncc(-c2cnn(C3CCNCC3)c2)c1)c1ccc(Cl)cc1 [Compound 23, (R)-3-(1-(4-chlorophenyl)ethoxy)-5-(1-(piperidin-4-yl)-1H-pyrazol-4-yl)pyridine]
12 | 24.9 | 83.6 | Cc1ccccc1COc1cncc(-c2cnn(C3CCNCC3)c2)c1 [Compound 25, 3-[(2-Methylphenyl)methoxy]-5-[1-(piperidin-4-yl)-1H-pyrazol-4-yl]pyridine]
13 | 14.6 | 87.4 | Clc1ccccc1COc1cncc(-c2ccn(C3CCNCC3)n2)c1 [Compound 26, 3-((2-chlorobenzyl)oxy)-5-(1-(piperidin-4-yl)-1H-pyrazol-3-yl)pyridine]
14 | 10.1 | 57.1 | Clc1ccccc1COc1cncc(-n2ccc(C3CCNCC3)n2)c1 [Compound 27, 3-((2-chlorobenzyl)oxy)-5-(3-(piperidin-4-yl)-1H-pyrazol-1-yl)pyridine]
15 | 5.98 | 55.5 | Clc1ccccc1COc1cncc(-n2cc(C3CCNCC3)cn2)c1 [Compound 28, 3-((2-chlorobenzyl)oxy)-5-(4-(piperidin-4-yl)-1H-pyrazol-1-yl)pyridine]
16 | 28.4 | 55 | Clc1ccccc1COc1cccc(-c2cnn(C3CCNCC3)c2)c1 [Compound 29, 4-(4-(3-((2-chlorobenzyl)oxy)phenyl)-1H-pyrazol-1-yl)piperidine]

Row | SMILES | CETSA Min Inhibition (%) | AC50 [µM]
17 | Cl.Clc1ccc(COc2cncc(-c3cnn(C4CCNCC4)c3)c2)c(Cl)c1 [Compound 10, 3-((2,4-dichlorobenzyl)oxy)-5-(1-(piperidin-4-yl)-1H-pyrazol-4-yl)pyridine hydrochloride] | 10.2 | 53.8
